The values that follow come from ChEMBL document CHEMBL1127707, “The use of the GRID program in the 3-D QSAR analysis of a series of calcium-channel agonists” (J Med Chem, 1994).

A short description of the data set: CMR value (relative to BAY K 8644). The class given is ADME.

As to `COC(=O)c1c(C)[nH]c(C)c1C(=O)c1ccccc1Sc1ccc([N+](=O)[O-])cc1`, the CMR is listed as 11.13. `COC(=O)c1c(C)[nH]c(C)c1C(=O)c1ccccc1Cc1ccccc1[N+](=O)[O-]` registered a CMR of 10.78. As for `COC(=O)c1c(C)[nH]c(C)c1C(=O)c1ccccc1Sc1ccccc1`, the CMR is reported as 10.4.

The molecule `COC(=O)c1c(C)[nH]c(C)c1C(=O)c1ccc(F)cc1Cc1ccccc1` had a CMR of 10.08. Molecule `COC(=O)c1c(C)[nH]c(C)c1C(=O)c1ccccc1NC1CCCCC1` had a CMR of 10.06.

The molecule `COC(=O)c1c(C)[nH]c(C)c1C(=O)c1ccccc1C(F)(F)F` showed a CMR of 7.6. With `COC(=O)c1c(C)[nH]c(C)c1C(=O)c1ccccc1CC1CCCCC1`, the CMR is given as 10.15. With `COC(=O)c1c(C)[nH]c(C)c1C(=O)c1ccccc1Cc1ccc(N)cc1`, the CMR turned out to be 10.43. As for `COC(=O)c1c(C)[nH]c(C)c1C(=O)c1ccc(F)cc1Cc1ccc(F)cc1`, the CMR is reported as 10.09. In turn, `COC(=O)c1c(C)[nH]c(C)c1C(=O)c1ccccc1Br` registered a CMR of 7.86. Regarding `COC(=O)c1c(C)[nH]c(C)c1C(=O)c1ccccc1Cl`, the CMR is listed as 7.58.

`COC(=O)c1c(C)[nH]c(C)c1C(=O)c1ccccc1Cc1ccc(F)cc1` showed a CMR of 10.08.

`COC(=O)c1c(C)[nH]c(C)c1C(=O)c1ccc([N+](=O)[O-])cc1Cl` yielded a CMR of 8.3.

As for `COC(=O)c1c(C)[nH]c(C)c1C(=O)c1ccccc1SCc1ccccc1`, the CMR is 10.87. Take `COC(=O)c1c(C)[nH]c(C)c1C(=O)c1ccccc1OCc1ccccc1`: the CMR stood at 10.21. As to `COC(=O)c1c(C)[nH]c(C)c1C(=O)c1ccccc1`, the CMR is 7.08. In the case of `COC(=O)c1c(C)[nH]c(C)c1C(=O)c1ccccc1Cc1ccccc1`, the CMR was 10.06. As for `COC(=O)c1c(C)[nH]c(C)c1C(=O)c1ccccc1OS(=O)(=O)c1ccc(C)cc1`, the CMR came out at 10.62. Under `COC(=O)c1c(C)[nH]c(C)c1C(=O)c1ccccc1F` stands 7.1; under `COC(=O)c1c(C)[nH]c(C)c1C(=O)c1ccccc1S(=O)(=O)Cc1ccccc1`, 10.93.

Molecule `COC(=O)c1c(C)[nH]c(C)c1C(=O)c1ccc(C)cc1C` displayed a CMR of 8.01.

The molecule `COC(=O)c1c(C)[nH]c(C)c1C(=O)c1ccccc1Cc1ccc([N+](=O)[O-])cc1` registered a CMR of 10.79.

The molecule `COC(=O)c1c(C)[nH]c(C)c1C(=O)c1ccccc1[S+]([O-])c1ccccc1` (stereo unspecified) yielded a CMR of 10.44. Regarding `COC(=O)c1c(C)[nH]c(C)c1C(=O)c1ccccc1Nc1ccccn1`, the CMR was 9.75.

For the molecule `COC(=O)c1c(C)[nH]c(C)c1C(=O)c1ccc(F)cc1Br`, the CMR was 7.877. As for `COC(=O)c1c(C)[nH]c(C)c1C(=O)c1ccccc1[S+]([O-])Cc1ccccc1` (stereo unspecified), the CMR was 10.9.

In turn, `COC(=O)c1c(C)[nH]c(C)c1C(=O)c1ccccc1Nc1ccccc1` displayed a CMR of 9.96.

Molecule `COC(=O)c1c(C)[nH]c(C)c1C(=O)c1ccccc1Oc1ccc([N+](=O)[O-])cc1` gave a CMR of 10.47. Under `COC(=O)c1c(C)[nH]c(C)c1C(=O)c1ccccc1OC` stands 7.7; under `COC(=O)c1c(C)[nH]c(C)c1C(=O)c1ccccc1I`, 8.39; under `COC(=O)c1c(C)[nH]c(C)c1C(=O)c1ccccc1Oc1ccccc1`, 9.75. `COC(=O)c1c(C)[nH]c(C)c1C(=O)c1ccccc1C`: the CMR was 7.58. The molecule `COC(=O)c1c(C)[nH]c(C)c1C(=O)c1ccccc1CCc1ccccc1` had a CMR of 10.52. Turning to `COC(=O)c1c(C)[nH]c(C)c1C(=O)c1ccc(Cl)cc1Cl`, the CMR is reported as 8.07. On to `COC(=O)c1c(C)[nH]c(C)c1C(=O)c1ccccc1C(=O)Oc1ccccc1O`, for which the CMR is reported as 10.4. In turn, `COC(=O)c1c(C)[nH]c(C)c1C(=O)c1ccccc1-c1ccccc1` registered a CMR of 9.6.
